These results are taken from patent publication US10793575B2, “Oxoisoquinoline derivatives” (CARNA BIOSCIENCES, INC., priority 2016, dated 2020).

Assay [1] concerns the target wild type BTK [BTK(WT)] (Homo sapiens (Human), UniProt Q06187). Nature of the assay: C481S Mutant BTK Inhibitory Activity Test, wild type BTK (mobility shift assay). The assay is classed as biochemical. Particulars: 120 μM ATP. The procedure:
(§1) The kinase activity was measured using QuickScout Screening Assist (trademark) MSA (commercially available kit manufactured by Carna Biosciences, Inc.) by mobility shift assay (MSA) method. The substrate of the kinase reaction was an FITC-labeled SRCtide peptide included in the kit. […] The 10 mM solution of the test compound in DMSO was further diluted with DMSO to 10 levels of the concentration (0.00003 mM, 0.0001 mM, 0.0003 mM, 0.001 mM, 0.003 mM, 0.01 mM, 0.03 mM, 0.1 mM, 0.3 mM, 1 mM), each of which was subjected to a 25-fold dilution with the assay buffer to obtain the drug solutions (4% DMSO solutions).
(§2) 5 μL of the drug solution or a control solution (4% DMSO-assay buffer), 5 μL of the substrate mixture solution, and 10 μL of the enzyme solution were mixed in the wells of a polypropylene 384-well plate and allowed to react at room temperature for 1 hour, and then quenched by adding 60 μL of the termination buffer included in the kit. Subsequently, the quantities of the substrates (S) and the phosphorylated substrate (P) in the reaction solution were measured using LabChip EZ Reader II system (manufactured by Caliper Life Sciences) according to the protocol of the assay kit.
(§3) The heights of the peaks of the isolated substrate and the phosphorylated substrate were represented as S and P, respectively, and a blank which contained the assay buffer instead of the enzyme solution was also measured.
(§4) The inhibition rate (%) of the test compound was calculated according to the following equation; Inhibition rate (%)=(1−(C−A)/(B−A))×100 • wherein, A, B and C represent P/(P+S) of the blank well, P/(P+S) of the control well and P/(P+S) of the compound-containing well, respectively.
(§5) The IC50 value was calculated via a regression analysis of the inhibition rate (%) and the test compound concentration (logarithmic value).

Assay [2] has as its target C481S mutant BTK [BTK(C481S)] (Homo sapiens (Human), UniProt Q06187, C481S). Nature of the assay: C481S Mutant BTK Inhibitory Activity Test (mobility shift assay). Particulars: for IC50: C481S mutant BTK, 100 μM ATP; for C481S mutation-resistance: IC50[BTK(C481S)]/IC50[BTK(WT)]. In kind it is biochemical. The procedure: as §1, §2, §3, §4, §5
Assay [3] relates to OCI-Ly10 cells. Nature of the assay: Proliferation-Inhibitory Test Against Diffuse Large-Cell B-Cell Lymphoma OCI-Ly10 Strain. The assay is classed as cell-based. Particulars: Homo sapiens, 96 hours, alamarBlue. In outline:
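In IMDM with 20% FBS, OCI-Ly10 cells (20000 cells/well) were exposed to compound at 0.9 nM to 30000 nM (0.3% DMSO final) for 96 hours. Viability was then read with alamarBlue reagent.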
In general terms: Alamar Blue is a resazurin reagent that responds to reducing activity.

Assay [4] concerns the target dephosphorylated BTK (Homo sapiens (Human), UniProt Q06187). Nature of the assay: BTK Activity Inhibition Test (mobility shift assay). In kind it is biochemical. Particulars: 200 μM ATP, read-out: Inhibitory Activity on BTK. Here is the method: Dephosphorylated BTK was obtained by adding λ protein phosphatase (manufactured by New England BioLabs Inc., Code No. P0753S) and MnCl2 at 10 U/μg and 2 mM, respectively, to biotinylated BTK protein BTN-BTK (Manufactured by Carna Biosciences, Inc.) enzyme solution, reacting the mixture at 4° C. overnight, and removing of λ protein phosphatase by anti […]-tag antibody agarose gel chromatography, followed by buffer exchange using a 10DG Desalting Column.
The kinase activity was measured using QuickScout Screening Assist (trade mark) MSA (commercially available kit manufactured by Carna Biosciences, Inc.) by mobility shift assay (MSA) method. The substrate of the kinase reaction was an FITC-labeled SRCtide peptide included in the kit. An assay buffer [20 mM HEPES, 0.01% Triton X-100 (Trade mark), 2 mM dithiothreitol, pH 7.5] was used and adjusted at 4 μM substrate, 20 mM MgCl2 and 200 μm ATP to obtain a substrate mixture solution. The enzyme solution was also prepared by diluting the dephosphorylated BTK to 0.46 nM using the assay buffer. The 10 mM solution of the test compound in DMSO was further diluted with DMSO to 10 levels of the concentration (0.00003 mM, 0.0001 mM, 0.0003 mM, 0.001 mM, 0.003 mM, 0.01 mM, 0.03 mM, 0.1 mM, 0.3 mM, 1 mM), each of which was subjected to a 25-fold dilution with the assay buffer to obtain the drug solutions (4% DMSO solutions). 5 μL of the drug solution or a control solution (4% DMSO-assay buffer), 5 μL of the substrate mixture solution, and 10 μL of the enzyme solution were mixed in the wells of a polypropylene 384-well plate and allowed to react at room temperature for 2 hours, and then quenched by adding 60 μL of the termination buffer included in the kit. Subsequently, the quantities of the substrates (S) and the phosphorylated substrate (P) in the reaction solution were measured using LabChip EZ Reader II system (manufactured by Caliper Life Sciences) according to the protocol of the assay kit.
as §3, §4, §5

Chain of wild type BTK [BTK(WT)] (Q06187 whole entry): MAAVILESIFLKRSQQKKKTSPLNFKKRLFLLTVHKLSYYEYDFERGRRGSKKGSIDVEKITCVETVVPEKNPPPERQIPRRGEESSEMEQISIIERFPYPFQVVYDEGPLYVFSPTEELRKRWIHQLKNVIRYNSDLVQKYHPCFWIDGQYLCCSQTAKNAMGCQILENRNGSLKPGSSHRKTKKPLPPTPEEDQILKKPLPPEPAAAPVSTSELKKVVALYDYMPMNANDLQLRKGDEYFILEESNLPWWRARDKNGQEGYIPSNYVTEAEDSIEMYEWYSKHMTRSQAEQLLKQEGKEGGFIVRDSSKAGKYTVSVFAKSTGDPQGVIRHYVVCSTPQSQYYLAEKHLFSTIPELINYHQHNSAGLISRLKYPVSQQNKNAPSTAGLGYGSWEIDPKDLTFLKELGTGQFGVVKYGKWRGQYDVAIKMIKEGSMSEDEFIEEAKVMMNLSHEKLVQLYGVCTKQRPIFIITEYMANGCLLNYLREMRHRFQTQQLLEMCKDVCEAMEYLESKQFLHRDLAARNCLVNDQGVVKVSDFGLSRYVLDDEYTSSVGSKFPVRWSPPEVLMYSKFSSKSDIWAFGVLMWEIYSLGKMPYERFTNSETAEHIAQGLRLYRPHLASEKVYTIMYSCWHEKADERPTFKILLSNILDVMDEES
Chain of dephosphorylated BTK (Q06187 whole entry): as above
Chain of C481S mutant BTK [BTK(C481S)] (Q06187 whole entry C481S): as the sequence (Q06187 whole entry) above, with C481S counted along it

With `CCC(=O)N1CC=C(c2cc3c(-c4cccc(-n5ccc6cc(C7CC7)cc(F)c6c5=O)c4CO)nc(N)nc3[nH]2)CC1` [Example 84, 2-{3-[2-amino-6-(1-propionyl-1,2,3,6-tetrahydropyridin-4-yl)-7H-pyrrolo[2,3-d]pyrimidin-4-yl]-2-(hydroxymethyl)phenyl}-6-cyclopropyl-8-fluoroisoquinolin-1(2H)-one], the IC50 was found to be 0.41 nM in assay [1], 0.82 nM in assay [2] and 6 nM in assay [3]. Moreover, the C481S mutation-resistance in assay [2] was found to be 2.

With `Nc1nc(-c2cccc(-n3ccc4cc(C5CC5)cc(F)c4c3=O)c2CO)c2cc(-c3ccc(CN4CCCC4)cc3)[nH]c2n1` [Example 53, 2-(3-{2-amino-6-[4-(pyrrolidin-1-ylmethyl)phenyl]-7H-pyrrolo[2,3-d]pyrimidin-4-yl}-2-(hydroxymethyl)phenyl)-6-cyclopropyl-8-fluoroisoquinolin-1(2H)-one], the values for the IC50 in assay [1], in assay [2] and in assay [3] were 0.51 nM, 0.9 nM and 25 nM, respectively. Further, the C481S mutation-resistance in assay [2] turned out to be 1.8.

Regarding `CN1CCN(C(=O)N2CC=C(c3cc4c(-c5cccc(-n6ccc7cc(C8CC8)cc(F)c7c6=O)c5CO)nc(N)nc4[nH]3)CC2)CC1` [Example 71, 2-(3-{2-amino-6-[1-(4-methylpiperazine-1-carbonyl)-1,2,3,6-tetrahydropyridin-4-yl]-7H-pyrrolo[2,3-d]pyrimidin-4-yl}-2-(hydroxymethyl)phenyl)-6-cyclopropyl-8-fluoroisoquinolin-1(2H)-one], the IC50 in assay [1] worked out at 0.39 nM; in assay [2], 0.58 nM. Besides, the C481S mutation-resistance in assay [2] stood at 1.5.

Regarding `Nc1nc(-c2cccc(-n3ccc4cc(C5CC5)cc(F)c4c3=O)c2CO)c2cc(C3=CCNCC3)[nH]c2n1` [Example 93, 2-{3-[2-amino-6-(1,2,3,6-tetrahydropyridin-4-yl)-7H-pyrrolo[2,3-d]pyrimidin-4-yl]-2-(hydroxymethyl)phenyl}-6-cyclopropyl-8-fluoroisoquinolin-1(2H)-one], the IC50 in assay [1] came out at 0.41 nM. Further, in assay [2], the IC50 was found to be 0.99 nM and the C481S mutation-resistance is on record as 2.4.

With `Nc1nc(-c2cccc(-n3ccc4cc(C5CC5)cc(F)c4c3=O)c2CO)c2cc(C3=CCN(C(=O)N4CCCC4)CC3)[nH]c2n1` [Example 88, 2-(3-{2-amino-6-[1-(pyrrolidine-1-carbonyl)-1,2,3,6-tetrahydropyridin-4-yl]-7H-pyrrolo[2,3-d]pyrimidin-4-yl}-2-(hydroxymethyl)phenyl)-6-cyclopropyl-8-fluoroisoquinolin-1(2H)-one], the IC50 came out at 0.94 nM in assay [1], 1.49 nM in assay [2] and 7 nM in assay [3]. Moreover, the C481S mutation-resistance in assay [2] stood at 1.6.

For `CCN1CC=C(c2cc3c(-c4cccc(-n5ccc6cc(C7CC7)cc(F)c6c5=O)c4CO)nc(N)nc3[nH]2)CC1` [Example 91, 2-{3-[2-amino-6-(1-ethyl-1,2,3,6-tetrahydropyridin-4-yl)-7H-pyrrolo[2,3-d]pyrimidin-4-yl]-2-(hydroxymethyl)phenyl}-6-cyclopropyl-8-fluoroisoquinolin-1(2H)-one], the results for the IC50 in assay [1], in assay [2] and in assay [3] were 0.47 nM, 1.1 nM and 38 nM, respectively. Further, the C481S mutation-resistance in assay [2] was determined as 2.1.

With `Nc1nc(-c2cccc(-n3ccc4cc(C5CC5)cc(F)c4c3=O)c2CO)c2cc(-c3ccc(CN4CCN(CCO)CC4)cc3)[nH]c2n1` [Example 61, 2-{3-[2-amino-6-(4-{[4-(2-hydroxyethyl)piperazin-1-yl]methyl}phenyl)-7H-pyrrolo[2,3-d]pyrimidin-4-yl]-2-(hydroxymethyl)phenyl}-6-cyclopropyl-8-fluoroisoquinolin-1(2H)-one], the IC50 in assay [1] amounted to 0.36 nM; in assay [2], 0.57 nM; in assay [3], 5 nM. Moreover, the C481S mutation-resistance in assay [2] worked out at 1.6.

On to `CS(=O)(=O)N1CC=C(c2cc3c(-c4cccc(-n5ccc6cc(C7CC7)cc(F)c6c5=O)c4CO)nc(N)nc3[nH]2)CC1` [Example 89, 2-(3-{2-amino-6-[1-(methylsulfonyl)-1,2,3,6-tetrahydropyridin-4-yl]-7H-pyrrolo[2,3-d]pyrimidin-4-yl}-2-(hydroxymethyl)phenyl)-6-cyclopropyl-8-fluoroisoquinolin-1(2H)-one], for which the IC50 in assay [1] was determined as 0.34 nM; in assay [2] it was 0.7 nM; in assay [3], 10 nM. Further, the C481S mutation-resistance in assay [2] amounted to 2.1.

With `CN(C)C(=O)N1CC=C(c2cc3c(-c4cccc(-n5ccc6cc(C7CC7)cc(F)c6c5=O)c4CO)nc(N)nc3[nH]2)CC1` [Example 87, 4-{2-amino-4-[3-(6-cyclopropyl-8-fluoro-1-oxoisoquinolin-2(1H)-yl)-2-(hydroxymethyl)phenyl]-7H-pyrrolo[2,3-d]pyrimidin-6-yl}-N,N-dimethyl-5,6-dihydropyridine-1(2H)-carboxamide], the IC50 in assay [1] was 0.52 nM; in assay [2], 0.95 nM. The C481S mutation-resistance in assay [2] amounted to 1.8.

For the compound `Nc1nc(-c2cccc(-n3ccc4cc(C5CC5)cc(F)c4c3=O)c2CO)c2cc(C3=CCS(=O)(=O)CC3)[nH]c2n1` [Example 83, 2-{3-[2-amino-6-(1,1-dioxido-3,6-dihydro-2H-thiopyran-4-yl)-7H-pyrrolo[2,3-d]pyrimidin-4-yl]-2-(hydroxymethyl)phenyl}-6-cyclopropyl-8-fluoroisoquinolin-1(2H)-one], the IC50 in assay [1] is 0.25 nM; in assay [2], 0.58 nM; in assay [3], 8 nM. Besides, the C481S mutation-resistance in assay [2] came out at 2.3.

Regarding `Cn1cc(-c2nc3c(-c4cccc(-n5ccc6cc(C7CC7)cc(F)c6c5=O)c4CO)nc(N)nc3[nH]2)cn1` [Example 31, 2-{3-[2-amino-8-(1-methyl-1H-pyrazol-4-yl)-9H-purin-6-yl]-2-(hydroxymethyl)phenyl}-6-cyclopropyl-8-fluoroisoquinolin-1(2H)-one], the figures for the IC50 in assay [4] and in assay [3] were less than 10 nM and 45 nM, respectively.

Regarding `NCc1cc2c(-c3cccc(-n4ccc5cc(C6CC6)cc(F)c5c4=O)c3CO)nc(N)nc2[nH]1` [Example 39, 2-{3-[2-amino-6-(aminomethyl)-7H-pyrrolo[2,3-d]pyrimidin-4-yl]-2-(hydroxymethyl)phenyl}-6-cyclopropyl-8-fluoroisoquinolin-1(2H)-one], the IC50 in assay [4] was 10 to 100 nM; in assay [3], 1050 nM.

With `Nc1nc(-c2cccc(-n3ccc4cc(C5CC5)cc(F)c4c3=O)c2CO)c2cc(-c3ccc(F)cc3)[nH]c2n1` [Example 34, 2-{3-[2-amino-6-(4-fluorophenyl)-7H-pyrrolo[2,3-d]pyrimidin-4-yl]-2-(hydroxymethyl)phenyl}-6-cyclopropyl-8-fluoroisoquinolin-1(2H)-one], the IC50 in assay [4] is less than 10 nM; in assay [3], 102 nM.
